US20250084097A1, “MACROCYCLIC AMIDE COMPOUNDS AND APPLICATION THEREOF” (Medshine Discovery Inc., priority 2021, published 2025)

Tests used:
[1] = tested on: Ba/F3-FL-EGFR (del19-T790M-C797S) cells; assay: In vivo efficacy, Ba/F3-FL-EGFR-Del19-T790M-C797S cell homograft tumor model; design: species or system mouse; settings: for Relative tumor proliferation rate T/C / Tumor growth inhibition rate TGI: Day 10
Experimental: Ba/F3-FL-EGFR (del19-T790M-C797S) cell line was cultured in RPMI1640 medium (Viva Cell)+10% fetal bovine serum (Viva Cell)+1% double-antibody (Penicillin Streptomycin solution, Gibco, USA) at 37° C., 5% CO2, and passaged 2-3 times a week. When the cell saturation was 80%-90%, cells were collected, counted and inoculated. When the cells in the logarithmic growth phase reached the required number for the assay, the cells were collected, and centrifuged at 1000 rpm for 5 min to remove the supernatant. The cells were resuspended with medium, and counted using a cell counter. According to the counting results, the original solution was diluted into a cell suspension with a concentration of 1*10^7 viable cells/mL, and the cell viability was 98.77%, P17 generation. The diluted cell suspension and matrix gel were diluted in a 1:1 ratio. After mixing well and placing on ice, the suspension was aspirated with a 1 mL sterile insulin syringe, and each mouse was subcutaneously inoculated with 0.2 mL of cell suspension in the right axilla. That is, each mouse was inoculated with 1*10^6 Ba/F3-FL-EGFR (del19-T790M-C797S) cells.
After the inoculation was completed, the tumor growth status was observed daily. When the average tumor volume reached approximately 100˜150 mm^3, the mice were randomly divided into groups according to tumor volume.
Dosage according to mouse body weight: 10 μL/g. If the body weight decreases by more than 20%, the dosing regimen was adjusted accordingly.
The formulation and any modifications of this assay protocol were evaluated and approved by the Laboratory Animal Welfare Ethics Committee of the testing institution. The health status and death of animals were checked every day. Routine inspections included tumor growth, activity, diet, body weight, eyes, hair and other abnormal behaviors of animals. Tumor volume and body weight were measured three times a week (Monday, Wednesday and Friday). The tumor volume was measured with a vernier caliper, and the formula was TV=0.5 a×b^2, where a is the long diameter of a tumor and b is the short diameter of a tumor.
Statistical analysis included the mean (Mean) and standard error (SEM) of tumor volume at each time point for each group. Statistical analysis was performed to evaluate differences between groups based on the data on the 10th day after administration. One way ANOVA post hoc test and Tamhane test were used to compare whether there was a significant difference in tumor volume between the treatment group and the control group. p<0.05 meaned a significant difference. Drug efficacy evaluation indicators included tumor volume and tumor weight to examine whether tumor growth was delayed, inhibited or cured. The anti-tumor efficacy of compounds was evaluated using the relative tumor proliferation rate T/C (%) or the tumor growth inhibition rate TGI (%). […] In principle, the evaluation criteria were: T/C (%) >40% or TGI (%) <40% represents ineffective; T/C (%)≤40% and p<0.05, or TGI (%)≥40% and p<0.05 represents effective.

[2] = molecular target: Ba/F3-FL-EGFR (del19-E746-A750/C797S) (Homo sapiens, UniProt P00533, DEL746-750/C797S, cells depend on it); assay: Cell proliferation inhibition, CellTiter-Glo; type: cell-based; settings: 72 hours, read-out: Cell half-maximal inhibition concentration IC50 Ba/F3-FL-EGFR (del19-E746-A750/C797S)
Ba/F3-FL-EGFR (del19-E746-A750/C797S), sequence (P00533 with tags, fused parts or gaps DEL746-750/C797S): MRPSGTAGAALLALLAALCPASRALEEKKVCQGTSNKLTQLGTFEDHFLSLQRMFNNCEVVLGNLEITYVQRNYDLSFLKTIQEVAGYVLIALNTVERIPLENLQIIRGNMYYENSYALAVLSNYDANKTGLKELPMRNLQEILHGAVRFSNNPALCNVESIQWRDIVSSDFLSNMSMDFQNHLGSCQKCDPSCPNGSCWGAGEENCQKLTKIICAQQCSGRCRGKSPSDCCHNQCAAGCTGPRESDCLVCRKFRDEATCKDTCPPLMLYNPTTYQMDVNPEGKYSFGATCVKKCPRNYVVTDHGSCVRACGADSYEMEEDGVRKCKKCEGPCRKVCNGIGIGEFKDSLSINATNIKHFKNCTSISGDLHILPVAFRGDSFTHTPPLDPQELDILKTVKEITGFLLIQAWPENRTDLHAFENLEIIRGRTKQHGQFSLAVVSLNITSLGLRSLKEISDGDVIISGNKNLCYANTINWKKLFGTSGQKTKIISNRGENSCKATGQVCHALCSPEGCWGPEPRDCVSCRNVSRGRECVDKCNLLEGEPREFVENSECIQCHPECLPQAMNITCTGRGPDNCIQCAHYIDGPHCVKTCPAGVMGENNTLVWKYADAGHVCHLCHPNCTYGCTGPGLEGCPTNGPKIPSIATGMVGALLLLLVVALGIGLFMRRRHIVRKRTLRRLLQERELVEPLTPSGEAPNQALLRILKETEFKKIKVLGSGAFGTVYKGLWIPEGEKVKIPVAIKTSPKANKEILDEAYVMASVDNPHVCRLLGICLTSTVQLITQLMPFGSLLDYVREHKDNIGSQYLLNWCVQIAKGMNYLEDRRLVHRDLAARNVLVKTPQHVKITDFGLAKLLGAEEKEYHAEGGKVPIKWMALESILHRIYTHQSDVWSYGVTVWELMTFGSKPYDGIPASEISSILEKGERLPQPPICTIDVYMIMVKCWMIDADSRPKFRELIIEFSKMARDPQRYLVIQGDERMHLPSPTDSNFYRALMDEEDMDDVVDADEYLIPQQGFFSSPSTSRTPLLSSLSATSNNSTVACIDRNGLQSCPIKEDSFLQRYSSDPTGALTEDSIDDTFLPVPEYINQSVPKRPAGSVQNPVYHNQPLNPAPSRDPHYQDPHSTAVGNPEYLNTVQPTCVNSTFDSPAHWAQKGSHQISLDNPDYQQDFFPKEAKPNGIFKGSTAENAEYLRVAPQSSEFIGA
Experimental: AdenosineTri-Phosphate (ATP) is an energy carrier shared by various life activities in nature, and is the smallest unit of energy storage and transfer. The CellTiter-Glo™ living cell assay kit uses luciferase as a detector, and luciferase requires the participation of ATP in the process of luminescence. CellTiter-Glo™ reagent is added to a cell culture medium, and the luminescence value is measured. The light signal is directly proportional to the amount of ATP in the system, and ATP is positively correlated with the number of living cells. Therefore, cell proliferation can be detected by detecting ATP content with the CellTiter-Glo kit. In this assay, the cell lines were Ba/F3-FL-EGFR (L858R/T790M/C797S), Ba/F3-FL-EGFR (WT), Ba/F3-FL-EGFR (L858R), Ba/F3-FL-EGFR (del19-S752-I759), Ba/F3-FL-EGFR (del19-E746-A750/T790M/C797S), Ba/F3-FL-EGFR (L858R/T790M), Ba/F3-FL-EGFR (del19-E746-A750/T790M), Ba/F3-TEL-EGFR (L858R/C797S), Ba/F3-FL-EGFR (del19-E746-A750/C797S) stably transfected cell lines.
The cell lines were cultured in an incubator at 37° C. and 5% CO2. The cells were periodically passaged, and cells in logarithmic growth phase were taken for plating.
a) DMSO was used to prepare a 10 mM solution of the compound to be tested, and then the compound to be tested was diluted to 0.3 or 1 mM with DMSO.
b) Preparation of 1000× compound storage plate (tube): DMSO was used to dilute by 3-fold gradient from the highest concentration to the lowest concentration, with a total of 9 concentrations.
c) Preparation of 20× compound working solution: 49 μL of cell culture medium was added to a flat-bottomed 96-well transparent drug plate, and 1 μL of compound was pipetted from the 1000× compound storage plate to the cell culture medium of the 96-well transparent drug plate. 1 μL of DMSO was added to the vehicle control. After adding compound or DMSO, the well content was mixed to uniform by aspiration and expelling with pipette.
a) Cells were stained with trypan blue and viable cells were counted. The cell viability rate was required to be above 90%.
b) 95 μL of cell suspension (2000 cells/well) was added to each well of the compound detection cell plate, and culture medium without cells (containing 0.1% DMSO) was added to the Min control well.
c) Dosing in the compound detection cell plate: 5 μL of 20× compound working solution was added to the cell culture plate. 5 μL of DMSO-cell culture mixture was added to the Max control. The final concentration of DMSO was 0.1%.
d) The culture plate was incubated in an incubator at 37° C., 5% CO2 for 72 hours.
Cell proliferation inhibition rate (Inhibition Rate) data were processed using the following formula:
Inhibition Rate (Inh %)=100−(RLUDrug−RLUMin)/(RLUMax−RLUMin)*100%.
The inhibition rates corresponding to different concentrations of compounds were calculated, and then GraphPad Prism software was used to draw the inhibition rate curve and the IC50 value was calculated.

[3] = 10 mg/kg/bid, day 0 after administration
[4] = 10 mg/kg/bid, day 3 after administration
[5] = 10 mg/kg/bid, day 5 after administration
[6] = 10 mg/kg/bid, day 7 after administration
[7] = 10 mg/kg/bid, day 10 after administration
[8] = 25 mg/kg/bid, day 0 after administration
[9] = 25 mg/kg/bid, day 3 after administration
[10] = 25 mg/kg/bid, day 5 after administration
[11] = 25 mg/kg/bid, day 7 after administration
[12] = 25 mg/kg/bid, day 10 after administration

| Structure (SMILES) | Relative tumor proliferation rate T/C ([1]; 10 mg/kg/bid) [%] | Tumor growth inhibition rate TGI ([1]; 10 mg/kg/bid) [%] | Average tumor volume [1, 3] [mm^3] | Average tumor volume [1, 4] [mm^3] | Average tumor volume [1, 5] [mm^3] | Average tumor volume [1, 6] [mm^3] | Average tumor volume [1, 7] [mm^3] | Relative tumor proliferation rate T/C ([1]; 25 mg/kg/bid) [%] | Tumor growth inhibition rate TGI ([1]; 25 mg/kg/bid) [%] | Average tumor volume [1, 8] [mm^3] | Average tumor volume [1, 9] [mm^3] | Average tumor volume [1, 10] [mm^3] | Average tumor volume [1, 11] [mm^3] | Average tumor volume [1, 12] [mm^3] | GI50 [2] [nM] |
| --- | --- | --- | --- | --- | --- | --- | --- | --- | --- | --- | --- | --- | --- | --- | --- |
| Cc1cc2cc(n1)-c1cnn(C)c1OCCC[C@@H](C)CN1/C(=N/C2=O)Nc2ccc(N=S(C)(C)=O)c(Cl)c21 [WX-019] | 8 | 101 | 113 | 133 | 140 | 148 | 106 | 7 | 103 | 113 | 120 | 94 | 130 | 82 | 6.5 |
| Cc1cc2cc(n1)-c1cnn(C)c1OC[C@H]1CC[C@H](C1)CN1/C(=N/C2=O)Nc2ccc(N=S(C)(C)=O)cc21 (single isomer, unassigned) [WX-027A] | 14 | 94 | 113 | 123 | 111 | 183 | 179 | 7 | 102 | 112 | 105 | 96 | 108 | 86 | 4.7 |
